This assay has as its target NAMPT enzyme (Homo sapiens (Human), UniProt P43490). Briefly: Enzyme Assay and NMN Detection (NAMPT reaction, fluorescence detection of NMN). The format is biochemical. As to conditions: NAMPT activation, NMN formation. In outline:
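Reaction in 50 mM HEPES pH 7.5, 5 mM MgCl2, 0.1% Prionex, 0.005% Tween 20, 1 mM TCEP at room temperature, with 16 nM NAMPT, 120 uM ATP, 5 uM nicotinamide, 6.25 uM PRPP, 0.04 U/ml pyrophosphatase for 2 h. Stopped with acetophenone/KOH then formic acid; NMN quantified by fluorescence (ex380/em460) against calibration curve.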

Consider 46 molecules from patent US11452717B2, “Small molecule activators of nicotinamide phosphoribosyltransferase (NAMPT) and uses thereof” (Sanford Burnham Prebys Medical Discovery Institute, priority 2017, dated 2022).

SMILES strings stand for the structures. Where only a bound is given, the exact number is not on record here.

NAMPT enzyme, sequence (P43490 whole entry, species assumed): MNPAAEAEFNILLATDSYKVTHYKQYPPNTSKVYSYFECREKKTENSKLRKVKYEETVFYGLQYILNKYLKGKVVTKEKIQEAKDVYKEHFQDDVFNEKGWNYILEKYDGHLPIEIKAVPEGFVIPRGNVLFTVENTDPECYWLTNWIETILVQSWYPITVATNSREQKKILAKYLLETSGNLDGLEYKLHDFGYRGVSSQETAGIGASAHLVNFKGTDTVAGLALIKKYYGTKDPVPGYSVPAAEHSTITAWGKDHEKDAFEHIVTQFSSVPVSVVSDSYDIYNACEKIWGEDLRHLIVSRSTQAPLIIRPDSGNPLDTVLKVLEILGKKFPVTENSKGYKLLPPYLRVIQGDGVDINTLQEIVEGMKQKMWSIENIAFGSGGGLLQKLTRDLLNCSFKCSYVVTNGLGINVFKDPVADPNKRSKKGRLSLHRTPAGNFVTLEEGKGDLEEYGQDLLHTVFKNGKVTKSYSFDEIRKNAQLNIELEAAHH

In the case of `COc1ccc(CNS(=O)(=O)c2ccc(NC(=O)NCc3ccncc3)cc2)cc1` [N-(4-methoxybenzyl)-4-(3-(pyridin-4-ylmethyl)ureido)benzenesulfonamide], the EC50 (as a rule, the concentration at which the effect is half-maximal) (Table B-2) fell in the range of 100 to 2000 nM.
On the same count and under the same terms, the result for `COc1ccc(NC(=O)c2ccc(NC(=O)NCc3ccncc3)cc2)cc1` [N-(4-methoxyphenyl)-4-(3-(pyridin-4-ylmethyl)ureido)benzamide] reads 100 to 2000 nM; that for `Cc1ccc(CNC(=O)c2ccc(NC(=O)NCc3ccncc3)cc2)cc1` [N-(4-methylbenzyl)-4-(3-(pyridin-4-ylmethyl)ureido)benzamide], more than 20000 nM.
For `Cc1ccc(CNS(=O)(=O)c2ccc(NC(=O)NCc3ccncc3)cc2)cc1` [N-(4-methylbenzyl)-4-(3-(pyridin-4-ylmethyl)ureido)benzenesulfonamide], the concentration for a half-maximal effect (EC50) (Table B-2) was 100 to 2000 nM.
On the same count and under the same terms, under `Cc1ccc(CCNC(=O)c2ccc(NC(=O)NCc3ccncc3)cc2)cc1` [N-(4-methylphenethyl)-4-(3-(pyridin-4-ylmethyl)ureido)benzamide] stands 100 to 2000 nM.
On to `COc1ccc(Cn2cc(CNC(=O)Nc3ccc(NS(=O)(=O)c4ccccc4)cc3)cn2)cc1` [N-(4-{3-[1-(4-Methoxy-benzyl)-1H-pyrazol-4-ylmethyl]-ureido}-phenyl)-benzenesulfonamide], for which the EC50 (Table B-1) was more than 20000 nM.
Under “Table B-2”, `Cc1cc(NS(=O)(=O)c2ccc(NC(=O)NCc3ccncc3)cc2)no1` [N-(5-Methyl-isoxazol-3-yl)-4-(3-pyridin-4-ylmethyl-ureido)-benzenesulfonamide] came in with an EC50 of more than 20000 nM.
Still for that read-out and setting: under `O=C(NCc1ccncc1)Nc1ccc(C(=O)Nc2ccc3c(c2)OCO3)cc1` [N-(benzo[d][1,3]dioxol-5-yl)-4-(3-(pyridin-4-ylmethyl)ureido)benzamide] stands 5000 to 20000 nM; under `O=C(NCc1ccncc1)Nc1cccc(S(=O)(=O)NCC2CCC2)c1` [N-(cyclobutylmethyl)-3-(3-(pyridin-4-ylmethyl)ureido)benzenesulfonamide], more than 20000 nM; under `O=C(NCc1ccncc1)Nc1ccc(C(=O)NCC2CCCC2)cc1` [N-(cyclopentylmethyl)-4-(3-(pyridin-4-ylmethyl)ureido)benzamide], 5000 to 20000 nM.
`O=C(NCc1ccncc1)Nc1ccc(C(=O)NCC2CC2)cc1` [N-(cyclopropylmethyl)-4-(3-(pyridin-4-ylmethyl)ureido)benzamide]: the EC50 (Table B-2) is 2000 to 5000 nM.
The same measure, in the same setting: the result for `O=C(NCc1ccncc1)Nc1ccc(C(=O)Nc2ccccn2)cc1` [N-(pyridin-2-yl)-4-(3-(pyridin-4-ylmethyl)ureido)benzamide] reads 5000 to 20000 nM; that for `O=C(NCc1ccncc1)Nc1ccc(C(=O)Nc2cccnc2)cc1` [N-(pyridin-3-yl)-4-(3-(pyridin-4-ylmethyl)ureido)benzamide], more than 20000 nM; that for `O=C(NCc1ccncc1)Nc1ccc(C(=O)NCc2ccncc2)cc1` [N-(pyridin-4-ylmethyl)-4-(3-(pyridin-4-ylmethyl)ureido)benzamide], more than 20000 nM.
Under “Table B-2”, `CC(C)(C)NS(=O)(=O)c1ccc(NC(=O)NCc2ccncc2)cc1` [N-(tert-butyl)-4-(3-(pyridin-4-ylmethyl)ureido)benzenesulfonamide] had an EC50 of 100 to 2000 nM.
`O=C(NCc1ccccc1)Nc1ccc(S(=O)(=O)NCc2ccccc2)cc1` [N-Benzyl-4-(3-benzyl-ureido)-benzenesulfonamide] yielded an EC50 (Table B-3) of more than 20000 nM.
Consider `O=C(NCc1cnco1)Nc1ccc(S(=O)(=O)NCc2ccccc2)cc1` [N-Benzyl-4-(3-oxazol-5-ylmethyl-ureido)-benzenesulfonamide], for which the EC50 (Table B-1) is 100 to 2000 nM.
As to `O=C(NCc1ccncc1)Nc1ccc(S(=O)(=O)N(Cc2ccccc2)CC(F)(F)F)cc1` [N-Benzyl-4-(3-pyridin-4-ylmethyl-ureido)-N-(2,2,2-trifluoro-ethyl)-benzenesulfonamide], the concentration giving a half-maximal response (EC50) (Table B-2) was less than 100 nM.
The same measure, in the same setting: under `O=C(NCc1ccncc1)Nc1ccc(S(=O)(=O)NCc2ccccc2)cc1` [N-Benzyl-4-(3-pyridin-4-ylmethyl-ureido)-benzenesulfonamide] stands 100 to 2000 nM.
With `O=C(NCc1cn[nH]c1)Nc1ccc(S(=O)(=O)NCc2ccccc2)cc1` [N-Benzyl-4-[3-(1H-pyrazol-4-ylmethyl)-ureido]-benzenesulfonamide], where the note is “Table B-1”, the EC50 lay within 100 to 2000 nM.
Molecule `O=C(NCc1ccncc1)Nc1ccc(S(=O)(=O)N(Cc2ccccc2)C2CC2)cc1` [N-Benzyl-N-cyclopropyl-4-(3-pyridin-4-ylmethyl-ureido)-benzenesulfonamide] yielded an EC50 (Table B-2) of less than 100 nM.
Where the note is “Table B-2”, `CCN(Cc1ccccc1)S(=O)(=O)c1ccc(NC(=O)NCc2ccncc2)cc1` [N-Benzyl-N-ethyl-4-(3-pyridin-4-ylmethyl-ureido)-benzenesulfonamide] returned an EC50 of less than 100 nM.
`CC(C)N(Cc1ccccc1)S(=O)(=O)c1ccc(NC(=O)NCc2cnco2)cc1` [N-Benzyl-N-isopropyl-4-(3-oxazol-5-ylmethyl-ureido)-benzenesulfonamide] showed an EC50 (Table B-1) of less than 100 nM.
In turn, `CC(C)N(Cc1ccccc1)S(=O)(=O)c1ccc(NC(=O)NCc2ccncc2)cc1` [N-Benzyl-N-isopropyl-4-(3-pyridin-4-ylmethyl-ureido)-benzenesulfonamide] displayed an EC50 (Table B-2) of less than 100 nM.
For the setting “Table B-1”, `CC(C)N(Cc1ccccc1)S(=O)(=O)c1ccc(NC(=O)NCc2nccs2)cc1` [N-Benzyl-N-isopropyl-4-(3-thiazol-2-ylmethyl-ureido)-benzenesulfonamide] returned an EC50 of more than 20000 nM.
Molecule `CC(C)N(Cc1ccccc1)S(=O)(=O)c1ccc(NC(=O)NCc2cncs2)cc1` [N-Benzyl-N-isopropyl-4-(3-thiazol-5-ylmethyl-ureido)-benzenesulfonamide] displayed a half-maximal effective concentration (EC50) (Table B-1) of less than 100 nM.
Under “Table B-1”, `CC(C)N(Cc1ccccc1)S(=O)(=O)c1ccc(NC(=O)NCc2cn[nH]c2)cc1` [N-Benzyl-N-isopropyl-4-[3-(1H-pyrazol-4-ylmethyl)-ureido]-benzenesulfonamide] came in with a 50% effective concentration (EC50) of less than 100 nM.
Take `O=C(NCc1ccncc1)Nc1ccc(S(=O)(=O)N(Cc2ccccc2)c2ccccc2)cc1` [N-Benzyl-N-phenyl-4-(3-pyridin-4-ylmethyl-ureido)-benzenesulfonamide]: the EC50 (Table B-2) was in the range of 100 to 2000 nM.
For the setting “Table B-2”, `CCCN(Cc1ccccc1)S(=O)(=O)c1ccc(NC(=O)NCc2ccncc2)cc1` [N-Benzyl-N-propyl-4-(3-pyridin-4-ylmethyl-ureido)-benzenesulfonamide] registered an EC50 of less than 100 nM.
Where the note is “Table B-2”, `O=C(NCc1ccncc1)Nc1ccc(S(=O)(=O)NC2CCC2)cc1` [N-Cyclobutyl-4-(3-pyridin-4-ylmethyl-ureido)-benzenesulfonamide] yielded an EC50 of 100 to 2000 nM.
The molecule `O=C(NCc1ccncc1)Nc1ccc(S(=O)(=O)NCC2CCC2)cc1` [N-Cyclobutylmethyl-4-(3-pyridin-4-ylmethyl-ureido)-benzenesulfonamide] had an EC50 (Table B-2) of 100 to 2000 nM.
`O=C(NCc1cn[nH]c1)Nc1ccc(S(=O)(=O)NCC2CCC2)cc1` [N-Cyclobutylmethyl-4-[3-(1H-pyrazol-4-ylmethyl)-ureido]-benzenesulfonamide] showed an EC50 (Table B-1) of 100 to 2000 nM.
Regarding `CN(CC1CCC1)S(=O)(=O)c1ccc(NC(=O)NCc2ccncc2)cc1` [N-Cyclobutylmethyl-N-methyl-4-(3-pyridin-4-ylmethyl-ureido)-benzenesulfonamide], the EC50 (Table B-2) fell in the range of 100 to 2000 nM.
On the same count and under the same terms, under `O=C(NCc1ccncc1)Nc1ccc(S(=O)(=O)NC2CCCCC2)cc1` [N-Cyclohexyl-4-(3-pyridin-4-ylmethyl-ureido)-benzenesulfonamide] stands 100 to 2000 nM; under `CN(C1CCCCC1)S(=O)(=O)c1ccc(NC(=O)NCc2ccncc2)cc1` [N-Cyclohexyl-N-methyl-4-(3-pyridin-4-ylmethyl-ureido)-benzenesulfonamide], 100 to 2000 nM; under `CC(C)CN(C1CCCC1)S(=O)(=O)c1ccc(NC(=O)NCc2ccncc2)cc1` [N-Cyclopentyl-N-isobutyl-4-(3-pyridin-4-ylmethyl-ureido)-benzenesulfonamide], less than 100 nM.
`CN(C1CCCC1)S(=O)(=O)c1ccc(NC(=O)NCc2ccncc2)cc1` [N-Cyclopentyl-N-methyl-4-(3-pyridin-4-ylmethyl-ureido)-benzenesulfonamide] gave a concentration giving a half-maximal response (EC50) (Table B-2) of 100 to 2000 nM.
As to `CN(C1CCCC1)S(=O)(=O)c1ccc(NC(=O)NCc2cn[nH]c2)cc1` [N-Cyclopentyl-N-methyl-4-[3-(1H-pyrazol-4-ylmethyl)-ureido]-benzenesulfonamide], under “Table B-1”, the EC50 was in the range of 100 to 2000 nM.
Molecule `O=C(NCc1ccncc1)Nc1ccc(S(=O)(=O)NC2CC2)cc1` [N-Cyclopropyl-4-(3-pyridin-4-ylmethyl-ureido)-benzenesulfonamide] gave an EC50 (Table B-2) of 2000 to 5000 nM.
Take `O=C(NCc1ccncc1)Nc1ccc(S(=O)(=O)NCC2CC2)cc1` [N-Cyclopropylmethyl-4-(3-pyridin-4-ylmethyl-ureido)-benzenesulfonamide]: the EC50 (Table B-2) lay in the range of 100 to 2000 nM.
On the same count and under the same terms, the result for `CC(C)NC(=O)c1ccc(NC(=O)NCc2ccncc2)cc1` [N-Isopropyl-4-(3-(pyridin-4-ylmethyl)ureido)benzamide] reads 100 to 2000 nM; that for `CC(C)NS(=O)(=O)c1ccc(NC(=O)NCc2ccncc2)cc1` [N-Isopropyl-4-(3-pyridin-4-ylmethyl-ureido)-benzenesulfonamide], 100 to 2000 nM; that for `CC(C)N(c1ccc(NC(=O)NCc2ccncc2)cc1)S(=O)(=O)Cc1ccccc1` [N-Isopropyl-C-phenyl-N-[4-(3-pyridin-4-ylmethyl-ureido)-phenyl]-methanesulfonamide], 2000 to 5000 nM.
Still for that read-out and setting: the result for `CC(C)N(c1ccc(NC(=O)NCc2ccncc2)cc1)S(=O)(=O)c1ccccc1` [N-Isopropyl-N-[4-(3-pyridin-4-ylmethyl-ureido)-phenyl]-benzenesulfonamide] reads 2000 to 5000 nM; that for `CN(Cc1ccccc1OC(F)(F)F)S(=O)(=O)c1ccc(NC(=O)NCc2ccncc2)cc1` [N-Methyl-4-(3-pyridin-4-ylmethyl-ureido)-N-(2-trifluoromethoxy-benzyl)-benzenesulfonamide], less than 100 nM; that for `CNS(=O)(=O)c1ccc(NC(=O)NCc2ccncc2)cc1` [N-Methyl-4-(3-pyridin-4-ylmethyl-ureido)-benzenesulfonamide], 2000 to 5000 nM.
